Measurements taken from ChEMBL document CHEMBL4229379, “Synthesis and structure-activity relationship of novel bisindole amidines active against MDR Gram-positive and Gram-negative bacteria” (Eur J Med Chem, 2018).

Key:
Pseudomonas aeruginosa [1] = test: Antibacterial activity against Pseudomonas aeruginosa ATCC 27853 after 18 hrs by CLSI broth microdilution method; type: functional; conditions: ATCC 27853, 18 h
Enterobacter cloacae = test: Antibacterial activity against Enterobacter cloacae ATCC 43560 after 18 hrs by CLSI broth microdilution method; type: functional; conditions: ATCC 43560, 18 h
[2] = test system: Staphylococcus epidermidis; test: Antibacterial activity against methicillin-sensitive Staphylococcus epidermidis 12-6 after 18 hrs by CLSI broth microdilution method; type: functional; conditions: 12-6, 18 h
Staphylococcus aureus [3] = test: Antibacterial activity against methicillin-sensitive Staphylococcus aureus 15 after 18 hrs by CLSI broth microdilution method; type: functional; conditions: Staphylococcus aureus, 15, 18 h
Proteus vulgaris = test: Antibacterial activity against Proteus vulgaris ATCC 29905 after 18 hrs by CLSI broth microdilution method; type: functional; conditions: ATCC 29905, 18 h
[4] = test system: Stenotrophomonas maltophilia; test: Antibacterial activity against Stenotrophomonas maltophilia ATCC 13636 after 18 hrs by CLSI broth microdilution method; type: functional; conditions: ATCC 13636, 18 h
Klebsiella pneumoniae [5] = test: Antibacterial activity against extended-spectrum beta-lactamase deficient Klebsiella pneumoniae 7 after 18 hrs by CLSI broth microdilution method; type: functional; conditions: Klebsiella pneumoniae, 7, 18 h
Enterococcus faecalis [6] = test: Antibacterial activity against vancomycin-sensitive Enterococcus faecalis 12-5 after 18 hrs by CLSI broth microdilution method; type: functional; conditions: 12-5, 18 h
Enterococcus faecalis [7] = test: Antibacterial activity against vancomycin-sensitive Enterococcus faecalis ATCC 29212 after 18 hrs by CLSI broth microdilution method; type: functional; conditions: ATCC 29212, 18 h
Klebsiella pneumoniae [8] = test: Antibacterial activity against extended-spectrum beta-lactamase deficient Klebsiella pneumoniae 12-4 after 18 hrs by CLSI broth microdilution method; type: functional; conditions: 12-4, 18 h
Klebsiella aerogenes = test: Antibacterial activity against Enterobacter aerogenes ATCC 13048 after 18 hrs by CLSI broth microdilution method; type: functional; conditions: ATCC 13048, 18 h
Staphylococcus aureus [9] = test: Antibacterial activity against methicillin-resistant Staphylococcus aureus 12-33 after 18 hrs by CLSI broth microdilution method; type: functional; conditions: 12-33, 18 h
[10] = Cytotoxicity against HEK293T cells assessed as reduction in cell viability after 48 hrs by MTS assay; type: cell-based, HEK-293T; conditions: human
Klebsiella pneumoniae [11] = test: Antibacterial activity against new delhi metallo-beta-lactamase-1 harboring Klebsiella pneumoniae ATCC BAA-2146 after 18 hrs by CLSI broth microdilution method; type: functional; conditions: ATCC BAA-2146, 18 h
Klebsiella pneumoniae [12] = test: Antibacterial activity against extended-spectrum beta-lactamase harboring Klebsiella pneumoniae 12-8 after 18 hrs by CLSI broth microdilution method; type: functional; conditions: 12-8, 18 h
Escherichia coli [13] = test: Antibacterial activity against extended-spectrum beta-lactamase deficient Escherichia coli 1515 after 18 hrs by CLSI broth microdilution method; type: functional; conditions: Escherichia coli, 1515, 18 h
[14] = test system: Acinetobacter calcoaceticus; test: Antibacterial activity against Acinetobacter calcoaceticus ATCC 19606 after 18 hrs by CLSI broth microdilution method; type: functional; conditions: ATCC 19606, 18 h
Enterococcus faecalis [15] = test: Antibacterial activity against vancomycin-resistant Enterococcus faecalis ATCC 51299 after 18 hrs by CLSI broth microdilution method; type: functional; conditions: ATCC 51299, 18 h
Enterococcus faecium [16] = test: Antibacterial activity against vancomycin-resistant Enterococcus faecium 12-1 after 18 hrs by CLSI broth microdilution method; type: functional; conditions: 12-1, 18 h
Serratia marcescens = test: Antibacterial activity against Serratia marcescens ATCC 21074 after 18 hrs by CLSI broth microdilution method; type: functional; conditions: ATCC 21074, 18 h
Enterococcus faecium [17] = test: Antibacterial activity against vancomycin-resistant Enterococcus faecium ATCC 700221 after 18 hrs by CLSI broth microdilution method; type: functional; conditions: ATCC 700221, 18 h
Pseudomonas aeruginosa [18] = test: Antibacterial activity against Pseudomonas aeruginosa PAO1 after 18 hrs by CLSI broth microdilution method; type: functional; conditions: PAO1, 18 h
[19] = test system: Staphylococcus epidermidis; test: Antibacterial activity against methicillin-sensitive Staphylococcus epidermidis ATCC 12228 after 18 hrs by CLSI broth microdilution method; type: functional; conditions: ATCC 12228, 18 h
Escherichia coli [20] = test: Antibacterial activity against extended-spectrum beta-lactamase harboring Escherichia coli 12-15 after 18 hrs by CLSI broth microdilution method; type: functional; conditions: 12-15, 18 h
Escherichia coli [21] = test: Antibacterial activity against extended-spectrum beta-lactamase deficient Escherichia coli 12-14 after 18 hrs by CLSI broth microdilution method; type: functional; conditions: 12-14, 18 h
[22] = test system: Staphylococcus epidermidis; test: Antibacterial activity against methicillin-resistant Staphylococcus epidermidis 12-8 after 18 hrs by CLSI broth microdilution method; type: functional; conditions: 12-8, 18 h
Staphylococcus aureus [23] = test: Antibacterial activity against methicillin-sensitive Staphylococcus aureus 12-28 after 18 hrs by CLSI broth microdilution method; type: functional; conditions: 12-28, 18 h
Enterococcus faecalis [24] = test: Antibacterial activity against vancomycin-resistant Enterococcus faecalis 09-9 after 18 hrs by CLSI broth microdilution method; type: functional; conditions: 09-9, 18 h
Enterococcus faecium [25] = test: Antibacterial activity against vancomycin-sensitive Enterococcus faecium 12-3 after 18 hrs by CLSI broth microdilution method; type: functional; conditions: 12-3, 18 h
Citrobacter freundii = test: Antibacterial activity against Citrobacter freundii ATCC 43864 after 18 hrs by CLSI broth microdilution method; type: functional; conditions: ATCC 43864, 18 h
Staphylococcus aureus [26] = test: Antibacterial activity against methicillin-sensitive Staphylococcus aureus ATCC 29213 after 18 hrs by CLSI broth microdilution method; type: functional; conditions: ATCC 29213, 18 h
Escherichia coli [27] = test: Antibacterial activity against extended-spectrum beta-lactamase deficient Escherichia coli ATCC 25922 after 18 hrs by CLSI broth microdilution method; type: functional; conditions: ATCC 25922, 18 h
Pseudomonas aeruginosa [28] = test: Antibacterial activity against Pseudomonas aeruginosa 12-16 after 18 hrs by CLSI broth microdilution method; type: functional; conditions: 12-16, 18 h
Providencia rettgeri = test: Antibacterial activity against Providencia rettgeri ATCC 31052 after 18 hrs by CLSI broth microdilution method; type: functional; conditions: ATCC 31052, 18 h
Klebsiella pneumoniae [29] = test: Antibacterial activity against extended-spectrum beta-lactamase harboring Klebsiella pneumoniae ATCC 700603 after 18 hrs by CLSI broth microdilution method; type: functional; conditions: Klebsiella pneumoniae, 700603, 18 h
Staphylococcus aureus [30] = test: Antibacterial activity against methicillin-resistant Staphylococcus aureus ATCC 33591 after 18 hrs by CLSI broth microdilution method; type: functional; conditions: ATCC 33591, 18 h
Proteus mirabilis = test: Antibacterial activity against Proteus mirabilis 12-6 after 18 hrs by CLSI broth microdilution method; type: functional; conditions: 12-6, 18 h

CC(C)NC(=N)c1ccc2cc(-c3cncc(-c4cc5ccc(C(=N)NC(C)C)cc5[nH]4)c3)[nH]c2c1
> 64 µg/mL: MIC (Pseudomonas aeruginosa [1]) | MIC (Enterobacter cloacae) | MIC (Proteus vulgaris) | MIC [4] | MIC (Klebsiella pneumoniae [5]) | MIC (Enterococcus faecalis [6]) | MIC (Enterococcus faecalis [7]) | MIC (Klebsiella pneumoniae [8]) | MIC (Klebsiella aerogenes) | MIC (Klebsiella pneumoniae [11]) | MIC (Klebsiella pneumoniae [12]) | MIC (Escherichia coli [13]) | MIC [14] | MIC (Enterococcus faecalis [15]) | MIC (Enterococcus faecium [16]) | MIC (Serratia marcescens) | MIC (Enterococcus faecium [17]) | MIC (Pseudomonas aeruginosa [18]) | MIC (Escherichia coli [20]) | MIC (Escherichia coli [21]) | MIC (Enterococcus faecalis [24]) | MIC (Enterococcus faecium [25]) | MIC (Citrobacter freundii) | MIC (Escherichia coli [27]) | MIC (Pseudomonas aeruginosa [28]) | MIC (Providencia rettgeri) | MIC (Klebsiella pneumoniae [29]) | MIC (Proteus mirabilis)
26.5 µg/mL: CC50 at 48 h [10]
2 µg/mL: MIC [2]
8 µg/mL: MIC [19] | MIC [22] | MIC (Staphylococcus aureus [26])
32 µg/mL: MIC (Staphylococcus aureus [9])
16 µg/mL: MIC (Staphylococcus aureus [3]) | MIC (Staphylococcus aureus [23]) | MIC (Staphylococcus aureus [30])

CN(C)CCCNC(=N)c1ccc2cc(-c3ccc(-c4cc5ccc(C(=N)NCCCN(C)C)cc5[nH]4)cc3)[nH]c2c1
8 µg/mL: MIC (Pseudomonas aeruginosa [1]) | MIC (Enterobacter cloacae) | MIC [4] | MIC (Klebsiella pneumoniae [5]) | MIC (Enterococcus faecalis [6]) | MIC (Klebsiella pneumoniae [8]) | MIC (Klebsiella aerogenes) | MIC (Klebsiella pneumoniae [11]) | MIC (Klebsiella pneumoniae [12]) | MIC (Escherichia coli [13]) | MIC (Serratia marcescens) | MIC (Pseudomonas aeruginosa [18]) | MIC (Escherichia coli [20]) | MIC (Escherichia coli [21]) | MIC (Enterococcus faecium [25]) | MIC (Citrobacter freundii) | MIC (Providencia rettgeri) | MIC (Klebsiella pneumoniae [29])
27.7 µg/mL: CC50 at 48 h [10]
16 µg/mL: MIC (Proteus vulgaris)
32 µg/mL: MIC (Pseudomonas aeruginosa [28])
4 µg/mL: MIC [2] | MIC (Staphylococcus aureus [3]) | MIC (Enterococcus faecalis [7]) | MIC (Staphylococcus aureus [9]) | MIC (Enterococcus faecalis [15]) | MIC (Enterococcus faecium [16]) | MIC (Enterococcus faecium [17]) | MIC (Staphylococcus aureus [23]) | MIC (Enterococcus faecalis [24]) | MIC (Staphylococcus aureus [26]) | MIC (Escherichia coli [27]) | MIC (Staphylococcus aureus [30])
2 µg/mL: MIC [19] | MIC [22]
128 µg/mL: MIC [14] | MIC (Proteus mirabilis)
